The record followed here is patent publication US20250215012A1, “IKZF2 DEGRADERS AND USES THEREOF” (REGENTS OF THE UNIVERSITY OF MICHIGAN, priority 2022, published 2025).

The target of this test is IKZF2 (Homo sapiens (Human), UniProt Q96SW2+Q9UKS7). In words: IKZF2 HiBiT Assay (Jurkat-IKZF2-HiBiT cell line). It counts as cell-based. As to conditions: Jurkat-IKZF2-HiBiT cells, 24 hours; for DC50: read-out: HiBit assay degradation analysis DC50; for Dmax: read-out: HiBit assay degradation analysis Dmax. Summed up: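 Jurkat cells carrying HiBiT-tagged IKZF2 were exposed to serially diluted compound for 24 h at 37 °C. Remaining IKZF2 was measured by Nano-Glo HiBiT lytic luminescence after 10-20 min at room temperature. Signal was normalized to DMSO, and IC50 came from a four-parameter variable-slope fit.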
On the technique in general: With HiBiT, luminescence reflects the tagged protein that the partner subunit can reach.

Bounds are passed on as bounds.

Usually DC50 stands for the concentration giving 50% degradation. Broadly, the Dmax is the greatest extent of degradation seen.

Sequence of IKZF2 (Q9UKS7 whole entry): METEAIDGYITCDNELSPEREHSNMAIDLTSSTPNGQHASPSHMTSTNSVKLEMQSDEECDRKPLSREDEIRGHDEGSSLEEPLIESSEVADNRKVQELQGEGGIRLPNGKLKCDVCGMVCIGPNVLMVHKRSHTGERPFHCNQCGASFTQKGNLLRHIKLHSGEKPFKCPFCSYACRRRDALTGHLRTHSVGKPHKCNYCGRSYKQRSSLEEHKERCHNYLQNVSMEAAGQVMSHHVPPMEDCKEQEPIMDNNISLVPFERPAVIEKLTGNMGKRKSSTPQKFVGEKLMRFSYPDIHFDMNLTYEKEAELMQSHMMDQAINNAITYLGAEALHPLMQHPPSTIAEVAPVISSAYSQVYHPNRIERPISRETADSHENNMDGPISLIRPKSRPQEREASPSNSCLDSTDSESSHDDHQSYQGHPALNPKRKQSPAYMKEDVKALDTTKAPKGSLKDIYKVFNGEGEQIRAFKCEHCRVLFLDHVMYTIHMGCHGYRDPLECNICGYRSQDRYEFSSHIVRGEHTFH
Sequence of IKZF2 (Q96SW2 whole entry): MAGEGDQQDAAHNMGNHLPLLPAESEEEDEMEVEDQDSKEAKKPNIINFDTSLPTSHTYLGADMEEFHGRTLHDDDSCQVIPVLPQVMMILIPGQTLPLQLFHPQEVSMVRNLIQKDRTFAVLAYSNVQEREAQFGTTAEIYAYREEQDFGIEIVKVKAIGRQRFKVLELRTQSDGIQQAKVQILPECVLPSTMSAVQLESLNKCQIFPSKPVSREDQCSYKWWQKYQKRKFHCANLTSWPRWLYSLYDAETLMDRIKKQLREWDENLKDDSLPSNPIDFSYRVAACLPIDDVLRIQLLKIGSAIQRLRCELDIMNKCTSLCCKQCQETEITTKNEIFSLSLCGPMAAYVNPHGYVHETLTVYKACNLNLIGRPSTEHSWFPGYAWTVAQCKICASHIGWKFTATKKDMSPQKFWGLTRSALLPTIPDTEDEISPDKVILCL
Sequence of IKZF2 (Q16531 whole entry partner): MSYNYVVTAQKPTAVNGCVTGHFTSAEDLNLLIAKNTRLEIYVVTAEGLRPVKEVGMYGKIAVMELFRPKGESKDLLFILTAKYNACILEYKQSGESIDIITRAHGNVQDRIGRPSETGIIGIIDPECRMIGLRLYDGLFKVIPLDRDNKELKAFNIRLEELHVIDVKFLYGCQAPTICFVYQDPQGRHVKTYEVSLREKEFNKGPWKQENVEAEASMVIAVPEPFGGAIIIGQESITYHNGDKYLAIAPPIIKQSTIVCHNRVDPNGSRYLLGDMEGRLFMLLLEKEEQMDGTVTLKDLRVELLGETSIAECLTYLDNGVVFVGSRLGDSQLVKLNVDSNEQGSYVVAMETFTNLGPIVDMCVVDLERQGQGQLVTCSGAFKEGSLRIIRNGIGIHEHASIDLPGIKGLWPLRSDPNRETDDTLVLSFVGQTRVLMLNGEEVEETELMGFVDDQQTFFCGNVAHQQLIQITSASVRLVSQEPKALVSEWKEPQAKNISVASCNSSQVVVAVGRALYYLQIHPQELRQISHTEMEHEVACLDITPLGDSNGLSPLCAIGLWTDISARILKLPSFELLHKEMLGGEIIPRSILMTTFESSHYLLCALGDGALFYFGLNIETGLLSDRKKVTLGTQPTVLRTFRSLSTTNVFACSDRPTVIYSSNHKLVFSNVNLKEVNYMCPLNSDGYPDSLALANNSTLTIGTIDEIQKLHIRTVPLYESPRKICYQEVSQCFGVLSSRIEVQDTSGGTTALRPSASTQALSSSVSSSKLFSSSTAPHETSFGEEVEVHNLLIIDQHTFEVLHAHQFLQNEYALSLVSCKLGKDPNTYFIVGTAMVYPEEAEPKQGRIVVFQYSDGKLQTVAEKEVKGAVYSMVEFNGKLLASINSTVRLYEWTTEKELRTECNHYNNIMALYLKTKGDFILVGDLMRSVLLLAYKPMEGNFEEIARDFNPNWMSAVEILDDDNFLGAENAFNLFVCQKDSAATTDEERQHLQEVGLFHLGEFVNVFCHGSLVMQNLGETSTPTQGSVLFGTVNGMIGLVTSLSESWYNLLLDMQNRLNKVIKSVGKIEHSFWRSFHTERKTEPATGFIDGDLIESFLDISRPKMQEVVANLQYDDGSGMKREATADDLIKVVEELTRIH

Consider `Cc1c(-c2cccc(CN3CCC4(CC3)COc3c4ccc4c3CN([C@H]3CCC(=O)NC3=O)C4=O)c2)cnn1C` [Compound A284, (S)-3-(1′-(3-(1,5-dimethyl-1H-pyrazol-4-yl)benzyl)-6-oxo-6,8-dihydro-2H,7H-spiro[furo[2,3-e]isoindole-3,4′-piperidin]-7-yl)piperidine-2,6-dione], for which the DC50 is less than 0.05 µM and the Dmax fell in the range of 60 to 80%.
Turning to `O=C1CC[C@H](N2Cc3c(ccc4c3OCC43CCN(Cc4ccc5cn(C6COC6)nc5c4)CC3)C2=O)C(=O)N1` [Compound A285, (S)-3-(1′-((2-(oxetan-3-yl)-2H-indazol-6-yl)methyl)-6-oxo-6,8-dihydro-2H,7H-spiro[furo[2,3-e]isoindole-3,4′-piperidin]-7-yl)piperidine-2,6-dione], the DC50 is less than 0.05 µM and the Dmax fell in the range of 60 to 80%.
In the case of `COCCn1cc(-c2cccc(CN3CCC4(CC3)COc3c4ccc4c3CN([C@H]3CCC(=O)NC3=O)C4=O)c2)cn1` [Compound A286, (S)-3-(1′-(3-(1-(2-methoxyethyl)-1H-pyrazol-4-yl)benzyl)-6-oxo-6,8-dihydro-2H,7H-spiro[furo[2,3-e]isoindole-3,4′-piperidin]-7-yl)piperidine-2,6-dione], the DC50 was in the range of 0.05 to 0.2 µM and the Dmax was 60 to 80%.
Taken in the same sequence, the figures for `COCCn1cc2ccc(CN3CCC4(CC3)COc3c4ccc4c3CN([C@H]3CCC(=O)NC3=O)C4=O)cc2n1` [Compound A287, (S)-3-(1′-((2-(2-methoxyethyl)-2H-indazol-6-yl)methyl)-6-oxo-6,8-dihydro-2H,7H-spiro[furo[2,3-e]isoindole-3,4′-piperidin]-7-yl)piperidine-2,6-dione] were less than 0.05 µM and 60 to 80%.
For `O=C1CC[C@H](N2Cc3c(ccc4c3OCC43CCN(Cc4ccc5cn(C(F)F)nc5c4)CC3)C2=O)C(=O)N1` [Compound A288, (S)-3-(1′-((2-(difluoromethyl)-2H-indazol-6-yl)methyl)-6-oxo-6,8-dihydro-2H,7H-spiro[furo[2,3-e]isoindole-3,4′-piperidin]-7-yl)piperidine-2,6-dione] the same measures were less than 0.05 µM and 60 to 80%.
Taken in the same sequence, the figures for `O=C1CC[C@H](N2Cc3c(ccc4c3OCC43CCN(Cc4cccc(-c5ccn(C(F)F)n5)c4)CC3)C2=O)C(=O)N1` [Compound A289, (S)-3-(1′-(3-(1-(difluoromethyl)-1H-pyrazol-3-yl)benzyl)-6-oxo-6,8-dihydro-2H,7H-spiro[furo[2,3-e]isoindole-3,4′-piperidin]-7-yl)piperidine-2,6-dione] were less than 0.05 µM and 60 to 80%.
Take `O=C1CC[C@H](N2Cc3c(ccc4c3OCC43CCN(Cc4cccc(-c5cc[nH]n5)c4)CC3)C2=O)C(=O)N1` [Compound A290, (S)-3-(1′-(3-(1H-pyrazol-3-yl)benzyl)-6-oxo-6,8-dihydro-2H,7H-spiro[furo[2,3-e]isoindole-3,4′-piperidin]-7-yl)piperidine-2,6-dione]: the DC50 is less than 0.05 µM and the Dmax was in the range of 60 to 80%.
As for `[2H]C([2H])([2H])n1cc(-c2cccc(CN3CCC4(CC3)COc3c4ccc4c3CN([C@H]3CCC(=O)NC3=O)C4=O)c2)cn1` [Compound A291, (S)-3-(1′-(3-(1-(methyl-d3)-1H-pyrazol-4-yl)benzyl)-6-oxo-6,8-dihydro-2H,7H-spiro[furo[2,3-e]isoindole-3,4′-piperidin]-7-yl)piperidine-2,6-dione], the DC50 is less than 0.05 µM and the Dmax was in the range of 60 to 80%.
Taken in the same sequence, the figures for `CC(C)(O)Cn1cc(-c2cccc(CN3CCC4(CC3)COc3c4ccc4c3CN([C@H]3CCC(=O)NC3=O)C4=O)c2)cn1` [Compound A292, (S)-3-(1′-(3-(1-(2-hydroxy-2-methylpropyl)-1H-pyrazol-4-yl)benzyl)-6-oxo-6,8-dihydro-2H,7H-spiro[furo[2,3-e]isoindole-3,4′-piperidin]-7-yl)piperidine-2,6-dione] were less than 0.05 µM and 60 to 80%.
For `O=C1CC[C@H](N2Cc3c(ccc4c3OCC43CCN(Cc4cccc(-c5cnn(CCF)c5)c4)CC3)C2=O)C(=O)N1` [Compound A293, (S)-3-(1′-(3-(1-(2-fluoroethyl)-1H-pyrazol-4-yl)benzyl)-6-oxo-6,8-dihydro-2H,7H-spiro[furo[2,3-e]isoindole-3,4′-piperidin]-7-yl)piperidine-2,6-dione] the same measures were less than 0.05 µM and 60 to 80%.
Taken in the same sequence, the figures for `COCn1cc(-c2cccc(CN3CCC4(CC3)COc3c4ccc4c3CN([C@H]3CCC(=O)NC3=O)C4=O)c2)cn1` [Compound A294, (S)-3-(1′-(3-(1-(methoxymethyl)-1H-pyrazol-4-yl)benzyl)-6-oxo-6,8-dihydro-2H,7H-spiro[furo[2,3-e]isoindole-3,4′-piperidin]-7-yl)piperidine-2,6-dione] were less than 0.05 µM and 60 to 80%.
Take `Cc1c2ccc(CN3CCC4(CC3)COc3c4ccc4c3CN([C@H]3CCC(=O)NC3=O)C4=O)cc2nn1C` [Compound A295, (S)-3-(1′-((2,3-dimethyl-2H-indazol-6-yl)methyl)-6-oxo-6,8-dihydro-2H,7H-spiro[furo[2,3-e]isoindole-3,4′-piperidin]-7-yl)piperidine-2,6-dione]: the DC50 is less than 0.05 µM and the Dmax was in the range of 60 to 80%.
Consider `Cn1ncc(-c2cccc(CN3CCC4(CC3)COc3c4ccc4c3CN([C@H]3CCC(=O)NC3=O)C4=O)c2)n1` [Compound A296, (S)-3-(1′-(3-(2-methyl-2H-1,2,3-triazol-4-yl)benzyl)-6-oxo-6,8-dihydro-2H,7H-spiro[furo[2,3-e]isoindole-3,4′-piperidin]-7-yl)piperidine-2,6-dione], for which the DC50 was less than 0.05 µM and the Dmax is 60 to 80%.
For `CO[C@H]1C[C@H](n2cc(-c3cccc(CN4CCC5(CC4)COc4c5ccc5c4CN([C@H]4CCC(=O)NC4=O)C5=O)c3)cn2)C1` [Compound A297, (S)-3-(1′-(3-(1-((1r,3r)-3-methoxycyclobutyl)-1H-pyrazol-4-yl)benzyl)-6-oxo-6,8-dihydro-2H,7H-spiro[furo[2,3-e]isoindole-3,4′-piperidin]-7-yl)piperidine-2,6-dione] the same measures were less than 0.05 µM and 60 to 80%.
Taken in the same sequence, the figures for `CCn1ncc2ccc(CN3CCC4(CC3)COc3c4ccc4c3CN([C@H]3CCC(=O)NC3=O)C4=O)cc21` [Compound A298, (S)-3-(1′-((1-ethyl-1H-indazol-6-yl)methyl)-6-oxo-6,8-dihydro-2H,7H-spiro[furo[2,3-e]isoindole-3,4′-piperidin]-7-yl)piperidine-2,6-dione] were 0.05 to 0.2 µM and 60 to 80%.
As to `CCn1cc2ccc(CN3CCC4(CC3)COc3c4ccc4c3CN([C@H]3CCC(=O)NC3=O)C4=O)cc2n1` [Compound A299, (S)-3-(1′-((2-ethyl-2H-indazol-6-yl)methyl)-6-oxo-6,8-dihydro-2H,7H-spiro[furo[2,3-e]isoindole-3,4′-piperidin]-7-yl)piperidine-2,6-dione], the 50% degradation concentration (DC50) is less than 0.05 µM and the Dmax was 60 to 80%.
For `[2H]C([2H])([2H])n1ncc2ccc(CN3CCC4(CC3)COc3c4ccc4c3CN([C@H]3CCC(=O)NC3=O)C4=O)cc21` [Compound A300, (S)-3-(1′-((1-(methyl-d3)-1H-indazol-6-yl)methyl)-6-oxo-6,8-dihydro-2H,7H-spiro[furo[2,3-e]isoindole-3,4′-piperidin]-7-yl)piperidine-2,6-dione], the DC50 was less than 0.05 µM and the Dmax fell in the range of 60 to 80%.
Taken in the same sequence, the figures for `[2H]C([2H])([2H])n1cc2ccc(CN3CCC4(CC3)COc3c4ccc4c3CN([C@H]3CCC(=O)NC3=O)C4=O)cc2n1` [Compound A301, (S)-3-(1′-((2-(methyl-d3)-2H-indazol-6-yl)methyl)-6-oxo-6,8-dihydro-2H,7H-spiro[furo[2,3-e]isoindole-3,4′-piperidin]-7-yl)piperidine-2,6-dione] were less than 0.05 µM and 60 to 80%.
On to `[2H]C([2H])([2H])n1ccc(-c2cccc(CN3CCC4(CC3)COc3c4ccc4c3CN([C@H]3CCC(=O)NC3=O)C4=O)c2)n1` [Compound A302, (S)-3-(1′-(3-(1-(methyl-d3)-1H-pyrazol-3-yl)benzyl)-6-oxo-6,8-dihydro-2H,7H-spiro[furo[2,3-e]isoindole-3,4′-piperidin]-7-yl)piperidine-2,6-dione], for which the DC50 was less than 0.05 µM and the Dmax was in the range of 60 to 80%.
For the compound `O=C1CC[C@H](N2Cc3c(ccc4c3OCC43CCN(Cc4ccc5c(c4)NC(=O)CC5)CC3)C2=O)C(=O)N1` [Compound A303, 3-(6-oxo-1′-((2-oxo-1,2,3,4-tetrahydroquinolin-7-yl)methyl)-6,8-dihydro-2H,7H-spiro[furo[2,3-e]isoindole-3,4′-piperidin]-7-yl)piperidine-2,6-dione], the DC50 was in the range of 0.2 to 0.5 µM and the Dmax lay within 60 to 80%.
Taken in the same sequence, the figures for `O=C1CC[C@H](N2Cc3c(ccc4c3OCC43CCN(Cc4cccc(C5CCOC5)c4)CC3)C2=O)C(=O)N1` (stereo partly drawn) [Compound A304, (3S)-3-(6-oxo-1′-(3-(tetrahydrofuran-3-yl)benzyl)-6,8-dihydro-2H,7H-spiro[furo[2,3-e]isoindole-3,4′-piperidin]-7-yl)piperidine-2,6-dione] were greater than 0.5 µM and 40 to 60%.
With `O=C1CC[C@H](N2Cc3c(ccc4c3OCC43CCN(CC4CCCN(C(=O)c5ccccc5)C4)CC3)C2=O)C(=O)N1` (stereo partly drawn) [Compound A305, (3S)-3-(1′-((1-benzoylpiperidin-3-yl)methyl)-6-oxo-6,8-dihydro-2H,7H-spiro[furo[2,3-e]isoindole-3,4′-piperidin]-7-yl)piperidine-2,6-dione], the DC50 is greater than 0.5 µM and the Dmax lay in the range of 40 to 60%.
Taken in the same sequence, the figures for `CN1CC2(CCN(Cc3cccc(-c4cnn(C)c4)c3)CC2)c2ccc3c(c21)CN(C1CCC(=O)NC1=O)C3=O` (stereo not shown) [Compound A308, 3-(1′-methyl-1-(3-(1-methyl-1H-pyrazol-4-yl)benzyl)-6′-oxo-1′,2′,6′,8′-tetrahydro-7′H-spiro[piperidine-4,3′-pyrrolo[3,4-g]indol]-7′-yl)piperidine-2,6-dione] were greater than 0.5 µM and less than 40%.
